In assay [1] the target is T1, E. coli cytochrome bd-I (Escherichia coli, UniProt P0ABJ9). As to the kind of experiment: Oxygen consumption assay (oxygen electrode), E. coli EC958 bd-I-only membranes. To be noted: for Inhibition of oxygen consumption / Effect on oxygen consumption (in words): 100 µM drug; for Inhibition of oxygen consumption / IC50: 8 mM succinate; for Inhibition of oxygen consumption: 500 µg/mL membranes; for IC50: IC50 oxygen consumption; for IC50 / Effect on oxygen consumption (in words): E. coli bd-I-only membranes.
T1 sequence (P0ABK2 whole entry, one chain of several): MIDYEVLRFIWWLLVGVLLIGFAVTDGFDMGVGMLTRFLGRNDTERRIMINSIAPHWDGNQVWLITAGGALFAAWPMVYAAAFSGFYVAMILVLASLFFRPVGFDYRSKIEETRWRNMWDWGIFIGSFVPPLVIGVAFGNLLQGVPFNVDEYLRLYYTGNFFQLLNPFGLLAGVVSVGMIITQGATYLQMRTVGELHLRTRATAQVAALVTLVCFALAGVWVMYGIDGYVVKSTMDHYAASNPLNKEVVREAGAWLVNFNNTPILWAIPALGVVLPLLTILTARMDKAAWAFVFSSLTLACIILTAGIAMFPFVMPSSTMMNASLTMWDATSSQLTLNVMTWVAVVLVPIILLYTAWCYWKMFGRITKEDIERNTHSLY
T1 sequence (A5A618 whole entry, one chain of several, further chain): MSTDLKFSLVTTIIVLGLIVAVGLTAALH
T1 sequence (P56100 whole entry, one chain of several, further chain): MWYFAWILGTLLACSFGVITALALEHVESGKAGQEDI

For assay [2], the system named is Mycobacterium smegmatis bd-only strain. Also noted: method as in PMID 31939065. To be noted: ATP assays, M. smegmatis bd-only strain ref 40; cited from earlier work.
For assay [3], the target named is T2, succinate dehydrogenase (Escherichia coli, UniProt P07014+P0AC41+P0AC44+P69054).
T2 construct: endogenous in cells; host or cells: E. coli EC958 bd-I-only mutant (ΔcyoA appCB::Cm), isolated cell membranes
T2 sequence (P0AC44 whole entry): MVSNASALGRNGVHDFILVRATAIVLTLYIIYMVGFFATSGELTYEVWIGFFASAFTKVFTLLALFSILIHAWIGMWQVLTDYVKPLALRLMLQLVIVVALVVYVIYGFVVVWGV
T2 sequence (P07014 whole entry): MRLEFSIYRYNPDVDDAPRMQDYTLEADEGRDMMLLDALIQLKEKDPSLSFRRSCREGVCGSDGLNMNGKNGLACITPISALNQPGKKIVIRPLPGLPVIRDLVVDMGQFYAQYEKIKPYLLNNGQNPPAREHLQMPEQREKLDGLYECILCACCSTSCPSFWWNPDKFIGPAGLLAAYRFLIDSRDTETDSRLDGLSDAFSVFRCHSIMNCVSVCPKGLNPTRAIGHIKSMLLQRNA
T2 sequence (P0AC41 whole entry): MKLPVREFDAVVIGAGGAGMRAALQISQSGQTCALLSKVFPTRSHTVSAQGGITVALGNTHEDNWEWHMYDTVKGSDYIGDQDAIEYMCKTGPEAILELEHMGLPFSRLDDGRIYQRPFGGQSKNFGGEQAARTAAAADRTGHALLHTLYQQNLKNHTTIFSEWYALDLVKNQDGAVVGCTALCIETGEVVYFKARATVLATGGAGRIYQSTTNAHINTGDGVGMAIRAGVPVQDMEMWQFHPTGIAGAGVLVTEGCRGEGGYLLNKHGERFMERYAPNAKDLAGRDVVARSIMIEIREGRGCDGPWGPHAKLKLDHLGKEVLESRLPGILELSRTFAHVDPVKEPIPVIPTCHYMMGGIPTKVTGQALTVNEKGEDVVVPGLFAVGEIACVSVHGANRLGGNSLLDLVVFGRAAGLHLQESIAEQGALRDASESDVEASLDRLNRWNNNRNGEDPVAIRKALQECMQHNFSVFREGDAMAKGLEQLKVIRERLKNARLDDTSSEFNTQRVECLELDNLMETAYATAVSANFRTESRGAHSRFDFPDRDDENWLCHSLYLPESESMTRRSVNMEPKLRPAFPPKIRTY
T2 sequence (P69054 whole entry): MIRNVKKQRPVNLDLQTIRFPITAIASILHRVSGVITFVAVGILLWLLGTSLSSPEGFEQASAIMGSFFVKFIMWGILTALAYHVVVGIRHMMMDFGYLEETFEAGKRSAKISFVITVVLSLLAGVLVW
In words: Succinate dehydrogenase assay, E. coli bd-I-only membranes. Type of assay: biochemical. The protocol:
The method used for the succinate dehydrogenase assay is an adaptation of Kolaj-Robin et al. 2011 [6]. A 1 mL mixture was prepared with a final concentration of 400 μM phenazine methosulfate (PMS), 8 mM succinate, 50 mM Tris-HCL (pH 8.5) buffer, 0.02 % n-dodecyl-β-D-maltoside, 2.5% drug, 500 µg/mL of bacteria membranes and 50 μM of dichlorophenolindophenol (added last). The phenazine methosulfate, succinate and membranes were first preincubated for 30 min at 37 °C before being added to the remaining mixture. To start the reaction, 50 μM of dichlorophenolindophenol was added that produced a starting OD600 that ranged from 0.8 to 1. Spectrakinetics were recorded on a Cary 60 spectrophotometer for 15 min.
Supplementary Figure S3. Succinate dehydrogenase (SDH) E. coli membrane assay with quinestrol. The activity of SDH was expressed as a percentage of the DMSO only control. Data represent the means of three repeats and error bars represent the standard deviation.

For assay [4], the system named is E. coli bd-I-only cells. As to the kind of experiment: Viability assay, E. coli bd-I-only. As to conditions: data not shown. Format: cell-based, Escherichia coli.
Assay [5] deals with vancomycin-resistant Enterococcus faecium. Also noted: method as in PMID 28190396. As to conditions: previous screen ref 31; cited from earlier work.
For assay [6], the system named is MRSA. Also on record: method as in PMID 28190396. To be noted: previous screen ref 31; cited from earlier work.
Assay [7] deals with gram-negative species. Also on record: method as in PMID 28190396. To be noted: previous screen ref 31; cited from earlier work.
The test system of assay [8] is E. coli WT cells. As to the kind of experiment: Viability assay, E. coli WT. As to conditions: 3 hours exposure.
Procedure: (§1) Viability assays were performed essentially as described by Webster et al [22]. In brief, E. coli EC958 was grown overnight in 10 mL LB medium and was used to inoculate M9 medium. MRSA cells were grown in TSB medium throughout. Twenty microliters of each drug was added to the wells of row A of a 96-well plate followed by 180 µL of cells (OD600 of 0.1). Cells were exposed to drug for 3 hours at 37°C. Following drug exposure, serial dilutions were performed in 1× phosphate-buffered saline (pH 7.4) before being spotted onto LB agar plates overnight to determine changes in cell growth. Six repeats were performed for each concentration of drug, which included 2 biological repeats and 3 technical repeats of each.
For assay [9], the system named is MRSA USA300 WT. As to the kind of experiment: Growth assay, MRSA USA300 WT.
Procedure: (§2) Starter cultures were grown in 10 mL Luria–Bertani (LB) (E. coli) or 10 mL Tryptic Soy Broth (TSB) medium (MRSA) in sterile 50 mL conical flasks at 180 rpm and 37°C, until stationary phase was reached, and were used to inoculate 50 mL of fresh growth medium in 250 mL conical flasks. M9 minimal medium was used for E. coli (16 g/L Na2HPO4.2H2O, 3 g/L KH2PO4, 0.5 g/L NaCl, 1 g/L NH4Cl, 0.24 g/L MgSO4, 0.01 g/L CaCl2, 0.1% casamino acids, and 2% glycerol), and TSB medium was used for MRSA. […] Greiner F-bottom sterile 96-well plates were prepared by adding 100 µL of a 2× concentrated growth medium, 61.7 µL sterile milliQ H2O, 5 µL of the drug, and 33.3 µL of cell culture (final optical density at 600 nm [OD600] of ∼ 0.1). Cells were grown in a FLUOstar Omega plate reader at double orbital pattern setting with readings being taken 300 seconds apart.
The test system of assay [10] is E. coli EC958 WT. As to the kind of experiment: Growth assay, E. coli EC958 WT. As to conditions: Escherichia coli, EC958WT, read-out: IC50 growth.
Procedure: as §2
Assay [11] concerns E. coli bo′-only cells. As to the kind of experiment: Viability assay, E. coli bo′-only. To be noted: data not shown.
In assay [12] the test system is MRSA WT cells. As to the kind of experiment: microbe, parasite or virus in culture. To be noted: Staphylococcus aureus, 3 h, read-out: LC50 (median lethal concentration).
Procedure: as §1
Assay [13] has as its system MRSA bd-only cells. In words: microbe, parasite or virus in culture. To be noted: Staphylococcus aureus, 3 h, read-out: LC50 (median lethal concentration).
Procedure: as §1
Assay [14] concerns MRSA aa3-only cells. As to the kind of experiment: microbe, parasite or virus in culture. To be noted: Staphylococcus aureus, 3 h, read-out: LC50 (median lethal concentration).
Procedure: as §1
For assay [15], the system named is MRSA bd-only strain. As to the kind of experiment: Growth assay, MRSA USA300 bd-only strain. As to conditions: Staphylococcus aureus, read-out: IC50 growth.
Source text: (§3) The methicillin-resistant Staphylococcus aureus (MRSA) strain used is the well-characterized USA300 LAC isolate [27], a community-associated MRSA strain isolated from the Los Angeles County Jail. All MRSA mutant strains were generated by phage transduction of the relevant transposon mutant from the Nebraska Transposon Mutant Library [28] into strain USA300 LAC using methods described previously [29], generating clean insertions in the loci of interest and conferring erythromycin resistance. For the purposes of this article, the MRSA qoxA::Tn strain will be referred to as “bd-only” while the cydA::Tn strain will be referred to as “aa3-only.”
(§4) Starter cultures were grown in 10 mL Luria–Bertani (LB) (E. coli) or 10 mL Tryptic Soy Broth (TSB) medium (MRSA) in sterile 50 mL conical flasks at 180 rpm and 37°C, until stationary phase was reached, and were used to inoculate 50 mL of fresh growth medium in 250 mL conical flasks. M9 minimal medium was used for E. coli (16 g/L Na2HPO4.2H2O, 3 g/L KH2PO4, 0.5 g/L NaCl, 1 g/L NH4Cl, 0.24 g/L MgSO4, 0.01 g/L CaCl2, 0.1% casamino acids, and 2% glycerol), and TSB medium was used for MRSA. […] Cells were grown in a FLUOstar Omega plate reader at double orbital pattern setting with readings being taken 300 seconds apart.
Assay [16] has as its system MRSA aa3-only strain. As to the kind of experiment: Growth assay, MRSA USA300 aa3-only strain. As to conditions: Staphylococcus aureus, read-out: IC50 growth.
Source text: as §3, §4
The subject of assay [17] is E. coli bo′-only strain. In words: Growth assay, E. coli EC958 bo′-only strain. As to conditions: Escherichia coli, read-out: IC50 growth.
Source text: as §3, §4
In assay [18] the test system is E. coli bd-I-only strain. In words: Growth assay, E. coli EC958 bd-I-only strain. As to conditions: Escherichia coli, read-out: IC50 growth.
Source text: as §3, §4
For assay [19], the target named is MRSA cytochrome bd (Staphylococcus aureus, UniProt A0A0H2XF42). As to the kind of experiment: Oxygen consumption assay, MRSA bd-only membranes. As to conditions: read-out: IC50 oxygen consumption; MRSA bd-only membranes 1 mg/mL, 500 µM NADH.
Sequence of MRSA cytochrome bd (A0A0H2XF42 entry or part of it): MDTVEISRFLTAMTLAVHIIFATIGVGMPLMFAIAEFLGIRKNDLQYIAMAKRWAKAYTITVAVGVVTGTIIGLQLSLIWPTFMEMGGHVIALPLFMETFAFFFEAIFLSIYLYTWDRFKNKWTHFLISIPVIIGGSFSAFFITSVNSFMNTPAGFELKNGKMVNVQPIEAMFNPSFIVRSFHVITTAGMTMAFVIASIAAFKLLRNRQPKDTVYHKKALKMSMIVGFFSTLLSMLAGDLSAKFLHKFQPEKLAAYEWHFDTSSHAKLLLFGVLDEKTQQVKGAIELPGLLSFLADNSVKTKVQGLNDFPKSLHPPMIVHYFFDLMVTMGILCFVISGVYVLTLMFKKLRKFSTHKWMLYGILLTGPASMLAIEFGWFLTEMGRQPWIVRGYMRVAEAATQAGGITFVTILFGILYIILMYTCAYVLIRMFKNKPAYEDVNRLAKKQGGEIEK
Sequence of MRSA cytochrome bd (A0A0H2XJA4 entry or part of it, further chain): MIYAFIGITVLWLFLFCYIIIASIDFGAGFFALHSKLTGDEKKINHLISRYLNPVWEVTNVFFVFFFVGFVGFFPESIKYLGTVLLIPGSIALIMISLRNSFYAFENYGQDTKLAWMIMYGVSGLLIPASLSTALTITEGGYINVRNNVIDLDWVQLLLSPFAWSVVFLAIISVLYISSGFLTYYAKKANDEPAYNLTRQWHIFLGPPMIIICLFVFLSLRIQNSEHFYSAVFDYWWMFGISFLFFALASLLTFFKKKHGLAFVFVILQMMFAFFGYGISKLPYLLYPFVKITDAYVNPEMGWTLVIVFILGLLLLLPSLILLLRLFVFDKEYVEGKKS
For assay [20], the target named is T3, E. coli cytochrome bd-I (Escherichia coli, UniProt P0ABJ9).
T3 construct: endogenous in cells; host or cells: E. coli EC958 (O25:H4-ST131) bd-I-only mutant (ΔcyoA appCB::Cm), isolated cell membranes
T3 sequence (P0ABJ9 whole entry, looked up): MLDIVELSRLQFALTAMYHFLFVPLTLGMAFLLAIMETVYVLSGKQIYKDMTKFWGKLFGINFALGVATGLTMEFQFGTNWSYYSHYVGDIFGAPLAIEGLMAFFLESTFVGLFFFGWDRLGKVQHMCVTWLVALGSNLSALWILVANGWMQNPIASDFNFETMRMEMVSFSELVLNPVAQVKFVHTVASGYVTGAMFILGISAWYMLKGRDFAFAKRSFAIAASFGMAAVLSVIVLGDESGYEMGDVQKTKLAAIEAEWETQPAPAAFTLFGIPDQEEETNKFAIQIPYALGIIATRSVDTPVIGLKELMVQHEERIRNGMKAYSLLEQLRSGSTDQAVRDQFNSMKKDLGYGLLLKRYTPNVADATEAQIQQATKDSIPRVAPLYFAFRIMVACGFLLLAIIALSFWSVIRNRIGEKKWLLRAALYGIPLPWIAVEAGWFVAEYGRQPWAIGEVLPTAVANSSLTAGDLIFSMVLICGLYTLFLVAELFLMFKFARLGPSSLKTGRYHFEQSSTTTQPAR
As to conditions: peptides that bind to E. coli cytochrome bd-I ref 33, 34, 35; cited from earlier work.

The target in assay [21] is T1, E. coli cytochrome bd-I. Also on record: endogenous in cells; host or cells: E. coli EC958 (O25:H4-ST131) bd-I-only mutant (ΔcyoA appCB::Cm), isolated cell membranes. As to conditions: peptides that bind to E. coli cytochrome bd-I ref 33, 34, 35; cited from earlier work.

In brackets after ≈: the same amount, converted by molar mass. Several values for one entry are separate records, joined by “and”; a condition that tells them apart may be missing. Equal entries are not always repeated. Entries after “also recorded” stand apart in the source; their conditions may differ. Where two headings read alike, the source gives them in different places. No end group written: not given here.

As for `C#C[C@]1(O)CC[C@H]2[C@@H]3CCc4cc(O)ccc4[C@H]3CC[C@@]21C` [Ethinyl estradiol], in assay [1], the “Inhibition of oxygen consumption” value worked out at 2 fold; the IC50 (commonly the concentration at which inhibition is half-maximal) was 159 µM and 158 µM.
With `CCn1c(C(=O)O)c(CNCCc2ccc(Cl)cc2)c2ccccc21` [MQL-H2, 3-[[2-(4-chlorophenyl)ethylamino]methyl]-1-ethyl-indole-2-carboxylic], in assay [2], the IC50 is 34 µM.
For `C#C[C@]1(O)CC[C@H]2[C@@H]3CCc4cc(OC)ccc4[C@H]3CC[C@@]21C` [Mestranol], the “Effect on oxygen consumption (in words)” value is given as “did not diminish oxygen consumption” in assay [1] and “no inhibitory effects” in assay [1] (listed as mestranol).
As for `C#C[C@]1(O)CC[C@H]2[C@@H]3CCc4cc(OC5CCCC5)ccc4[C@H]3CC[C@@]21C` [Quinestrol], the “Succinate dehydrogenase activity (in words)” value in assay [3] is “does not inhibit succinate dehydrogenase activity”. Also, the “Bactericidal activity (in words)” value in assay [4] was “no killing effects”; in assay [8], “not lethal”; in assay [8] (listed as quinestrol), “did not kill; also recorded: completely resistant to killing”; in [11], “no killing effects”. Moreover, the “Growth inhibition (in words)” value in assay [5] is given as “inhibit the growth”; in assay [6], “inhibit the growth”; in assay [7], “not gram-negative species”. The IC50 is 9.8 µg/mL and 27 µM in assay [9] (Staphylococcus aureus, read-out: IC50 growth, MRSA WT, TSB medium); 26.9 µM in assay [9] (read-out: IC50 growth, MRSA WT, TSB medium); 0.1 µg/mL and 300 nM in [10]; 2.2 µg/mL and 6 µM in assay [15]; 5.7 µg/mL and 15.6 µM in assay [16]; 0.1 µg/mL and 300 nM in [17]. Also, the IC50 was 0.06 µg/mL and 200 nM in [18]; 2.69 µM in assay [19]; 0.549 µM and 0.5 µM in [1]. Besides, the CC50 came out at 3.4 ± 0.7 µg/mL (≈ 9.33 µM) in [12], 5.6 ± 0.3 µg/mL (≈ 15.4 µM) in assay [13] and 24.7 ± 1.6 µM in [14]. For the same molecule, the “Inhibition of oxygen consumption” value in [1] is listed as 4 fold. Besides, in assay [1] (at higher concentrations), the “Residual oxygen consumption activity” value is “around 20%”.
As for cathelicidin LL-37, in assay [20], the “IC50 (in words)” value is “µM range”.
Regarding gramicidin S, the “IC50 (in words)” value in assay [21] was “µM range”.
Turning to “microcin J25 (GGAGHVPEYFVGIGTPISFYG; ends and bridges not checked; UniProt Q9X2V7 38-58, looked up)”, the “IC50 (in words)” value in assay [20] is “µM range”.

The record behind these values is PMC11272085, “Steroid Drugs Inhibit Bacterial Respiratory Oxidases and Are Lethal Toward Methicillin-Resistant Staphylococcus aureus” (The Journal of Infectious Diseases, 2024).
